Results reported in ChEMBL document CHEMBL1201862, “PubChem BioAssay data set” (2004).
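Values below derive from 48-hour exposures of cells grown in 96-well plates, with endpoints linearly interpolated between the two concentrations bracketing the appropriate inhibition level. Abbreviation: GI50, concentration required for 50% inhibition of growth.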 Active and inactive are the calls of the source. Rule as the data show it: active = GI50 up to about 1.1 µM and inactive = higher.

How the values were obtained:
Assay in all cases: inhibition of tumour cell growth, NCI panel, 48 h
[1] = system: 786-0
[2] = system: A498
[3] = system: A549
[4] = system: ACHN
[5] = system: BT-549
[6] = system: CAKI-1
[7] = system: CCRF-CEM
[8] = system: DU-145
[9] = system: HCC 2998
[10] = system: HCT-116
[11] = system: HCT-15
[12] = system: HL-60
[13] = system: HOP-62
[14] = system: HT-29
[15] = system: IGROV-1
[16] = system: K562
[17] = system: LOX IMVI
[18] = system: M14
[19] = system: MCF7
[20] = system: MDA-MB-231
[21] = system: MDA-MB-435
[22] = system: MDA-N
[23] = system: MOLT-4
[24] = system: Malme-3M
[25] = system: NCI-H226
[26] = system: NCI-H23
[27] = system: NCI-H460
[28] = system: NCI-H522
[29] = system: OVCAR-3
[30] = system: OVCAR-4
[31] = system: OVCAR-5
[32] = system: OVCAR-8
[33] = system: PC-3
[34] = system: RPMI-8226
[35] = system: SF-268
[36] = system: SK-MEL-28
[37] = system: SK-MEL-2
[38] = system: SK-MEL-5
[39] = system: SN12C
[40] = system: SNB-19
[41] = system: SNB-75
[42] = system: SR
[43] = system: SW-620
[44] = system: T47D
[45] = system: TK-10
[46] = system: U-251
[47] = system: UACC-257
[48] = system: UACC-62
[49] = system: UO-31
[50] = system: COLO 205
[51] = system: EKVX
[52] = system: HOP-92
[53] = system: KM12
[54] = system: SF-295
[55] = system: SF-539
[56] = system: SK-OV-3

For `O=C(/N=N/c1ccc([N+](=O)[O-])cc1)NNc1ccc([N+](=O)[O-])cc1`, the GI50 [1] was 13.7 µM (inactive), the GI50 [2] was 4.46 µM (inactive) and the GI50 [3] was 26 µM (inactive). The GI50 [4] was 13.5 µM (inactive), the GI50 [5] was 15.5 µM (inactive) and the GI50 [6] was 18.9 µM (inactive). For the same compound, the GI50 [7] was 15.8 µM (inactive), the GI50 [8] was 5.74 µM (inactive) and the GI50 [9] was 14.2 µM (inactive). The GI50 [10] was 11.8 µM (inactive), the GI50 [11] was 19.2 µM and the GI50 [12] was 11.9 µM (inactive). The GI50 [13] was 13.3 µM (inactive), the GI50 [14] was 31.3 µM (inactive) and the GI50 [15] was 12.8 µM (inactive). For the same compound, the GI50 [16] was 11.4 µM (inactive), the GI50 [17] was 11.2 µM (inactive) and the GI50 [18] was 13.5 µM (inactive). The GI50 [19] was 4.58 µM (inactive), the GI50 [20] was 24 µM (inactive) and the GI50 [21] was 12.8 µM (inactive). For the same compound, the GI50 [22] was 11.6 µM (inactive), the GI50 [23] was 11 µM (inactive) and the GI50 [24] was 19 µM (inactive). The GI50 [25] was 19.5 µM (inactive), the GI50 [26] was 15.5 µM (inactive) and the GI50 [27] was 19.6 µM (inactive). For the same compound, the GI50 [28] was 17.7 µM (inactive), the GI50 [29] was 20.5 µM (inactive) and the GI50 [30] was 18.1 µM (inactive). The GI50 [31] was 14.5 µM (inactive), the GI50 [32] was 17.2 µM (inactive) and the GI50 [33] was 9.62 µM (inactive). For the same compound, the GI50 [34] was 14.3 µM (inactive), the GI50 [35] was 21.8 µM (inactive) and the GI50 [36] was 16.4 µM (inactive). The GI50 [37] was 13.3 µM (inactive), the GI50 [38] was 13.9 µM (inactive) and the GI50 [39] was 13.3 µM (inactive). For the same compound, the GI50 [40] was 27 µM (inactive), the GI50 [41] was 23.9 µM (inactive) and the GI50 [42] was 15.4 µM (inactive). For the same compound, the GI50 [43] was 18.7 µM (inactive), the GI50 [44] was 9.14 µM (inactive) and the GI50 [45] was 20.1 µM (inactive). The GI50 [46] was 18.9 µM (inactive), the GI50 [47] was 24.3 µM (inactive) and the GI50 [48] was 10.3 µM (inactive). The GI50 [49] was 10.9 µM (inactive).
In the case of `CC1=CCC(C(C)(C)NC(=O)c2ccccc2)C/C1=N/O` (configuration not stated), the GI50 [1] is reported as > 100 µM (inactive), the GI50 [3] is reported as > 100 µM (inactive) and the GI50 [5] is reported as > 100 µM (inactive). The GI50 [7] was > 100 µM (inactive), the GI50 [50] was > 100 µM (inactive) and the GI50 [8] was > 100 µM (inactive). For the same compound, the GI50 [51] was > 100 µM (inactive), the GI50 [9] was > 100 µM (inactive) and the GI50 [10] was > 100 µM (inactive). The GI50 [11] was greater than 100 µM, the GI50 [12] was > 100 µM (inactive) and the GI50 [13] was > 100 µM (inactive). For the same compound, the GI50 [52] was 43.3 µM (inactive), the GI50 [14] was > 100 µM (inactive) and the GI50 [15] was > 100 µM (inactive). For the same compound, the GI50 [16] was > 100 µM (inactive), the GI50 [53] was > 100 µM (inactive) and the GI50 [17] was > 100 µM (inactive). The GI50 [18] was > 100 µM (inactive), the GI50 [19] was > 100 µM (inactive) and the GI50 [20] was > 100 µM (inactive). The GI50 [21] was > 100 µM (inactive), the GI50 [22] was > 100 µM (inactive) and the GI50 [23] was > 100 µM (inactive). For the same compound, the GI50 [26] was > 100 µM (inactive), the GI50 [27] was > 100 µM (inactive) and the GI50 [28] was > 100 µM (inactive). For the same compound, the GI50 [29] was > 100 µM (inactive), the GI50 [30] was > 100 µM (inactive) and the GI50 [31] was > 100 µM (inactive). For the same compound, the GI50 [32] was > 100 µM (inactive), the GI50 [33] was > 100 µM (inactive) and the GI50 [35] was > 100 µM (inactive). The GI50 [54] was > 100 µM (inactive), the GI50 [55] was > 100 µM (inactive) and the GI50 [36] was > 100 µM (inactive). The GI50 [38] was > 100 µM (inactive), the GI50 [56] was > 100 µM (inactive) and the GI50 [39] was > 100 µM (inactive). For the same compound, the GI50 [40] was > 100 µM (inactive), the GI50 [41] was > 100 µM (inactive) and the GI50 [43] was > 100 µM (inactive). For the same compound, the GI50 [44] was > 100 µM (inactive), the GI50 [45] was > 100 µM (inactive) and the GI50 [46] was > 100 µM (inactive). For the same compound, the GI50 [47] was > 100 µM (inactive), the GI50 [48] was > 100 µM (inactive) and the GI50 [49] was > 100 µM (inactive).
